Converted amounts (≈) assume the structure as drawn.
Tests used:
Assay type in all cases: functional
[1] = tested on: Staphylococcus aureus; assay: Antibacterial activity against methicillin-resistant Staphylococcus aureus NRS384 measured by liquid dilution method
[2] = tested on: Staphylococcus aureus; assay: Antibacterial activity against Staphylococcus aureus ATCC 29213 measured by liquid dilution method
[3] = tested on: Escherichia coli; assay: Antibacterial activity against Escherichia coli ATCC 25922 measured by liquid dilution method
[4] = tested on: Staphylococcus aureus; assay: Antibacterial activity against vancomycin-intermediate Staphylococcus aureus ATCC 700699 measured by liquid dilution method
[5] = tested on: Enterococcus faecalis; assay: Antibacterial activity against Enterococcus faecalis EFA17-1 measured by liquid dilution method
[6] = tested on: Staphylococcus aureus; assay: Antibacterial activity against methicillin-resistant Staphylococcus aureus MRSA17-1 measured by liquid dilution method
[7] = tested on: Staphylococcus aureus; assay: Antibacterial activity against methicillin-resistant Staphylococcus aureus MRSA17-2 measured by liquid dilution method
[8] = tested on: Staphylococcus aureus; assay: Antibacterial activity against methicillin-resistant Staphylococcus aureus MRSA17-3 measured by liquid dilution method
[9] = tested on: Staphylococcus aureus; assay: Antibacterial activity against methicillin-resistant Staphylococcus aureus MRSA17-5 measured by liquid dilution method
[10] = tested on: Staphylococcus aureus; assay: Antibacterial activity against methicillin-resistant Staphylococcus aureus MRSA17-6 measured by liquid dilution method
[11] = tested on: Staphylococcus aureus; assay: Antibacterial activity against methicillin-resistant Staphylococcus aureus ATCC 33591 measured by liquid dilution method
[12] = tested on: Staphylococcus aureus; assay: Antibacterial activity against methicillin-resistant Staphylococcus aureus ATCC 43300 measured by liquid dilution method
[13] = tested on: Staphylococcus aureus; assay: Antibacterial activity against vancomycin-intermediate Staphylococcus aureus ATCC 700788 measured by liquid dilution method
[14] = tested on: Staphylococcus aureus; assay: Antibacterial activity against methicillin-sensitive Staphylococcus aureus MSSA17-1 measured by liquid dilution method
[15] = tested on: Staphylococcus aureus; assay: Antibacterial activity against methicillin-sensitive Staphylococcus aureus MSSA17-2 measured by liquid dilution method
[16] = tested on: Staphylococcus aureus; assay: Antibacterial activity against methicillin-sensitive Staphylococcus aureus MSSA17-3 measured by liquid dilution method
[17] = tested on: Staphylococcus epidermidis; assay: Antibacterial activity against methicillin-resistant Staphylococcus epidermidis MRSE17-1 measured by liquid dilution method
[18] = tested on: Staphylococcus epidermidis; assay: Antibacterial activity against methicillin-resistant Staphylococcus epidermidis MRSE17-2 measured by liquid dilution method
[19] = tested on: Staphylococcus epidermidis; assay: Antibacterial activity against methicillin-resistant Staphylococcus epidermidis MRSE17-3 measured by liquid dilution method
[20] = tested on: Staphylococcus epidermidis; assay: Antibacterial activity against methicillin-resistant Staphylococcus epidermidis MRSE17-4 measured by liquid dilution method
[21] = tested on: Staphylococcus epidermidis; assay: Antibacterial activity against methicillin-resistant Staphylococcus epidermidis MRSE17-6 measured by liquid dilution method
[22] = tested on: Staphylococcus epidermidis; assay: Antibacterial activity against methicillin-sensitive Staphylococcus epidermidis MSSE17-1 measured by liquid dilution method
[23] = tested on: Staphylococcus epidermidis; assay: Antibacterial activity against methicillin-sensitive Staphylococcus epidermidis MSSE17-2 measured by liquid dilution method
[24] = tested on: Staphylococcus epidermidis; assay: Antibacterial activity against methicillin-sensitive Staphylococcus epidermidis MSSE17-3 measured by liquid dilution method
[25] = tested on: Enterococcus faecalis; assay: Antibacterial activity against Enterococcus faecalis ATCC 29212 measured by liquid dilution method
[26] = tested on: Enterococcus faecium; assay: Antibacterial activity against Enterococcus faecium EFM17-1 measured by liquid dilution method
[27] = tested on: Enterococcus faecium; assay: Antibacterial activity against Enterococcus faecium EFM17-2 measured by liquid dilution method

Structure (SMILES): CNC1=NC(=O)C(C(C)c2c[nH]c3cc(F)ccc23)O1 (racemic)
- MIC [1]: 8 µg/mL (≈ 29.1 µM)
- MIC [2]: 16 µg/mL (≈ 58.1 µM)
- MIC [3]: 8 µg/mL (≈ 29.1 µM)

Structure (SMILES): CNC1=NC(=O)C(C(C)c2c[nH]c3ccc(Br)cc23)O1 (racemic)
- MIC [1]: 64 µg/mL (≈ 190 µM)
- MIC [2]: > 128 µg/mL
- MIC [3]: 4 µg/mL (≈ 11.9 µM)

Structure (SMILES): CN[C@H](CC(C)C)C(=O)N[C@H]1C(=O)N[C@@H](CC(N)=O)C(=O)N[C@H]2C(=O)N[C@H]3C(=O)N[C@H](C(=O)N[C@H](C(=O)O)c4cc(O)cc(O)c4-c4cc3ccc4O)[C@H](O)c3ccc(c(Cl)c3)Oc3cc2cc(c3O[C@@H]2O[C@H](CO)[C@@H](O)[C@H](O)[C@H]2O[C@H]2C[C@](C)(N)[C@H](O)[C@H](C)O2)Oc2ccc(cc2Cl)[C@H]1O [VANCOMYCIN]
- MIC [4]: 8 µg/mL (≈ 5.52 µM)
- MIC [5]: 2 µg/mL (≈ 1.38 µM)

Structure (SMILES): CNC1=NC(=O)[C@@H]([C@@H](C)c2c[nH]c3c(F)cccc23)O1
- MIC [2]: > 128 µg/mL
- MIC [6]: 8 µg/mL (≈ 29.1 µM)
- MIC [7]: 8 µg/mL (≈ 29.1 µM)
- MIC [8]: 8 µg/mL (≈ 29.1 µM)
- MIC [9]: 8 µg/mL (≈ 29.1 µM)
- MIC [10]: 8 µg/mL (≈ 29.1 µM)
- MIC [11]: > 128 µg/mL
- MIC [12]: > 128 µg/mL
- MIC [4]: > 128 µg/mL
- MIC [13]: > 128 µg/mL
- MIC [14]: 8 µg/mL (≈ 29.1 µM)
- MIC [15]: 4 µg/mL (≈ 14.5 µM)
- MIC [16]: 4 µg/mL (≈ 14.5 µM)
- MIC [17]: 4 µg/mL (≈ 14.5 µM)
- MIC [18]: 1 µg/mL (≈ 3.63 µM)
- MIC [19]: > 128 µg/mL
- MIC [20]: > 128 µg/mL
- MIC [21]: 2 µg/mL (≈ 7.27 µM)
- MIC [22]: 32 µg/mL (≈ 116 µM)
- MIC [23]: 2 µg/mL (≈ 7.27 µM)
- MIC [24]: > 128 µg/mL
- MIC [5]: > 128 µg/mL
- MIC [25]: > 128 µg/mL
- MIC [26]: > 128 µg/mL
- MIC [27]: > 128 µg/mL

Structure (SMILES): CNC1=NC(=O)[C@@H]([C@@H](C)c2c[nH]c3cccc(F)c23)O1
- MIC [2]: > 128 µg/mL
- MIC [6]: > 128 µg/mL
- MIC [7]: > 128 µg/mL
- MIC [8]: > 128 µg/mL
- MIC [9]: > 128 µg/mL
- MIC [10]: > 128 µg/mL
- MIC [11]: > 128 µg/mL
- MIC [12]: > 128 µg/mL
- MIC [4]: > 128 µg/mL
- MIC [13]: > 128 µg/mL
- MIC [14]: > 128 µg/mL
- MIC [15]: > 128 µg/mL
- MIC [16]: > 128 µg/mL
- MIC [17]: > 128 µg/mL
- MIC [18]: > 128 µg/mL
- MIC [19]: > 128 µg/mL
- MIC [20]: > 128 µg/mL
- MIC [21]: > 128 µg/mL
- MIC [22]: > 128 µg/mL
- MIC [23]: > 128 µg/mL
- MIC [24]: > 128 µg/mL
- MIC [5]: > 128 µg/mL
- MIC [25]: > 128 µg/mL
- MIC [26]: > 128 µg/mL
- MIC [27]: > 128 µg/mL

Structure (SMILES): CNC1=NC(=O)C(C(C)c2c[nH]c3cccc(C)c23)O1 (racemic)
- MIC [1]: > 128 µg/mL
- MIC [2]: 2 µg/mL (≈ 7.37 µM)
- MIC [3]: 32 µg/mL (≈ 118 µM)

Structure (SMILES): CNC1=NC(=O)C(C(C)c2c[nH]c3cccc(OC)c23)O1 (racemic)
- MIC [1]: > 128 µg/mL
- MIC [2]: 128 µg/mL (≈ 445 µM)
- MIC [3]: 16 µg/mL (≈ 55.7 µM)

Structure (SMILES): CNC1=NC(=O)C(C(C)c2c[nH]c3cccc(O)c23)O1 (racemic)
- MIC [1]: 8 µg/mL (≈ 29.3 µM)
- MIC [2]: > 128 µg/mL
- MIC [3]: > 128 µg/mL

Structure (SMILES): CNC1=NC(=O)C(C(C)c2c[nH]c3cccc(F)c23)S1 (racemic)
- MIC [1]: > 128 µg/mL
- MIC [2]: 8 µg/mL (≈ 27.5 µM)
- MIC [3]: > 128 µg/mL

From ChEMBL document CHEMBL5104172, “Design, synthesis, and antibacterial activity of derivatives of Tryptophanyl-tRNA synthetase inhibitor indolmycin” (Eur J Med Chem, 2022)
